Results on four compounds are retold here after ChEMBL document CHEMBL1201862, “PubChem BioAssay data set” (2004).

Test systems include OVCAR-3; KM12; M14; UACC-257; HCC 2998; HOP-62; U-251; 786-0; CAKI-1; MOLT-4; NCI-H226; SF-539; HOP-92; A498; SNB-75; HL-60; HT-29; OVCAR-5; LOX IMVI.
Common to all, as to experiment: NCI-60 cell line screen, 48 h

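Tested at 5 concentrations; 48 h exposure; 96-well plates; endpoints linearly interpolated, else capped at highest concentration. GI50 is the concentration that inhibits growth by half.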 Active and inactive are the calls of the source. No stated cut-off is given here; in the data, active = GI50 up to about 1.1 µM and inactive = higher. Where only a bound is given, the exact number is not on record here.

Turning to `O=c1c2ccccc2[nH]n1Cc1ccccc1`, the GI50 with OVCAR-3, with KM12, in the experiment on M14, in the experiment with UACC-257, with HCC 2998 and with HOP-62 was > 100 µM (inactive) throughout. Besides, the GI50 with U-251, in the experiment on 786-0, with CAKI-1, in the experiment with MOLT-4, with NCI-H226 and with SF-539 was > 100 µM (inactive) each time. The GI50 in the experiment with HOP-92, with A498, with SNB-75, with HL-60, in the experiment on HT-29 and with OVCAR-5 was > 100 µM (inactive) in each case. Also, the GI50 in the experiment on LOX IMVI is > 100 µM (inactive).
Turning to `CCCCC1(N=[N+]=[N-])C(=O)C2C=CC=C3c4ccccc4N(C1=O)C32` (stereo unspecified), the GI50 was 21.6 µM (inactive) in the experiment on OVCAR-3; 24.8 µM (inactive) in the experiment on KM12; 19.3 µM (inactive) with M14; 18.4 µM (inactive) in the experiment with UACC-257; 15.6 µM (inactive) in the experiment on HCC 2998; 27.1 µM (inactive) in the experiment with HOP-62. Besides, the GI50 is 18.7 µM (inactive) in the experiment on U-251; 22 µM (inactive) in the experiment on 786-0; 19.8 µM (inactive) in the experiment with CAKI-1; 15.3 µM (inactive) with MOLT-4; 21.3 µM (inactive) in the experiment on NCI-H226; 20 µM (inactive) with SF-539. The GI50 is > 10 µM (inactive) in the experiment on HOP-92; > 10 µM (inactive) in the experiment with A498; 11.6 µM (inactive) in the experiment with SNB-75; 34 µM (inactive) in the experiment on HL-60; 14.1 µM (inactive) in the experiment with HT-29; 19.8 µM (inactive) in the experiment with OVCAR-5. Besides, the GI50 with LOX IMVI is 17.9 µM (inactive).
As to `CCC(C)C1NC(=O)C(NC(=O)C(CC(C)C)N(C)C(=O)[C@@H]2C=CCN2C(=O)[C@H](C)O)C(C)OC(=O)[C@H](Cc2ccc(OC)cc2)N(C)C(=O)[C@@H]2CCCN2C(=O)[C@H](CC(C)C)NC(=O)C(C)C(=O)[C@H](C(C)C)OC(=O)CC1O` (stereo partly specified), the GI50 in the experiment on OVCAR-3 is 0.00393 µM (active); in the experiment on KM12 it was < 0.01 µM (active); in the experiment with M14, 0.00188 µM (active); in the experiment on UACC-257 it was 0.00311 µM (active); with HCC 2998 it was 0.00306 µM (active); in the experiment on HOP-62, 0.00303 µM (active). In addition, the GI50 was 0.00131 µM (active) in the experiment on U-251; 0.00185 µM (active) in the experiment on 786-0; 0.00984 µM (active) in the experiment with CAKI-1; 0.00147 µM (active) with MOLT-4; < 0.01 µM (active) in the experiment with NCI-H226; 0.00139 µM (active) in the experiment with SF-539. In addition, the GI50 with HOP-92 is 0.00643 µM (active); in the experiment with A498 it was 0.00671 µM (active); in the experiment with SNB-75, 0.00198 µM (active); with HL-60 it was 0.00299 µM (active); in the experiment on HT-29, 0.00252 µM (active); with OVCAR-5, 0.0137 µM (active). Moreover, the GI50 with LOX IMVI was 0.00242 µM (active).
Regarding `c1ccc(/N=C2\c3ccccc3CN2c2ccccn2)nc1`, the GI50 in the experiment on OVCAR-3 is > 100 µM (inactive); with KM12, > 100 µM (inactive); in the experiment with M14, > 100 µM (inactive); in the experiment with UACC-257, > 100 µM (inactive); with HCC 2998 it was 37.8 µM (inactive); in the experiment with HOP-62, > 100 µM (inactive). For the same compound, the GI50 with U-251 is > 100 µM (inactive); in the experiment on 786-0, > 100 µM (inactive); in the experiment on CAKI-1, > 100 µM (inactive); with MOLT-4, 54.6 µM (inactive); in the experiment on NCI-H226 it was > 100 µM (inactive); in the experiment on SF-539 it was > 100 µM (inactive). Moreover, the GI50 in the experiment with HOP-92 is 15.7 µM (inactive); in the experiment on A498 it was > 100 µM (inactive); with SNB-75 it was 94.8 µM (inactive); in the experiment with HL-60, < 0.01 µM (active); in the experiment with HT-29 it was 34.2 µM (inactive); in the experiment with OVCAR-5, > 100 µM (inactive). For the same compound, the GI50 in the experiment with LOX IMVI is 96.2 µM (inactive).
